{"source": "patent US20030078278A1", "about": "“Spiropiperidine compounds as ligands for ORL-1 receptor” (Pfizer Inc., priority 2001, published 2003)", "key": {"human Mu receptor": {"target": "T1, human Mu receptor (Homo sapiens, UniProt P35372)", "T1 construct": "expressed in transfected cells; host or cells: CHO-K1", "T1 sequence (P35372 whole entry)": "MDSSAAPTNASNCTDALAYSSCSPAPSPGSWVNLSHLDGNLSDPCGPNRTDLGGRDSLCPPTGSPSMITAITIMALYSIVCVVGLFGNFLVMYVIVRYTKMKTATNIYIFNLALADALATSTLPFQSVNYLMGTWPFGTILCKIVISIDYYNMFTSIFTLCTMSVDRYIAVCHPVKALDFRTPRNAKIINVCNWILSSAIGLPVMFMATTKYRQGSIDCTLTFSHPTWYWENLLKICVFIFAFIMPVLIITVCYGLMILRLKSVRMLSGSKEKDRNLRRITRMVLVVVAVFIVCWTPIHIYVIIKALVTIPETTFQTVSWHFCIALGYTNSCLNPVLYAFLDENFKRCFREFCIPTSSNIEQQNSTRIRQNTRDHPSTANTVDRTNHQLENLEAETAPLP", "assay": "μ-Receptor Binding Assay ([3H]DAMGO, SPA)", "settings": "human Mu receptor transfected CHO-K1 cell membranes, 1.0 nM [3H]DAMGO", "method": "μ-Receptor Binding Assay:\nThe human Mu receptor transfected CHO-K1 cell membranes were incubated for 45 min at 22° C. with 1.0 nM [^3H]DAMGO, 1.0 mg of wheat germ agglutinin-coated SPA beads and various concentrations of test compounds in a final volume of 200 μl of 50 mM Tris-HCl buffer pH 7.4 containing 5 mM MgCl2. Non-specific binding was determined by the addition of 1 μM unlabeled DAMGO. After the reaction, the assay plate was centrifuged at 1,000 rpm for 1 min and then the radioactivity was measured by a Liquid Scintillation Counter.\n(§1) Each percent […] binding thus obtained is graphed as a function of compound concentration. A sigmoidal curve is used to determine 50% bindings (i.e., IC50 values)."}, "human ORL1 receptor": {"target": "T2, human ORL1 receptor (Homo sapiens, UniProt P41146)", "T2 construct": "expressed in transfected cells; host or cells: HEK-293", "T2 sequence (P41146 whole entry)": "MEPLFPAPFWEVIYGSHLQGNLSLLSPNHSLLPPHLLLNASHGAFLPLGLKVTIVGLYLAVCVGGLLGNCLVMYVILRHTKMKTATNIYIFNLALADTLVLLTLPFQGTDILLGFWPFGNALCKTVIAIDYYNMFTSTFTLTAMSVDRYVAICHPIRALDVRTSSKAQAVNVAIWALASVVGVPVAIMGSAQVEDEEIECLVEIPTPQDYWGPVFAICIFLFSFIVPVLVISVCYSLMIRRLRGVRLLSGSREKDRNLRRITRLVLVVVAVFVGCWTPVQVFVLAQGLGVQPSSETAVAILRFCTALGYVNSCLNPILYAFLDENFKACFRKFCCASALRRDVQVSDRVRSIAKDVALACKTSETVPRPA", "assay": "ORL1-Receptor Binding Assay ([3H]nociceptin, SPA)", "method": "ORL1-Receptor Binding Assay:\nThe human ORL1 receptor transfected HEK-293 cell membranes were incubated for 45 min at 22° C. with 0.4 nM [^3H]nociceptin, 1.0 mg of wheat germ agglutinin-coated SPA beads and various concentrations of test compounds in a final volume of 200 μl of 50 mM HEPES buffer pH 7.4 containing 10 mM MgCl2 and 1 mM EDTA. Non-specific binding was determined by the addition of 1 μM unlabeled nociceptin. After the reaction, the assay plate was centrifuged at 1,000 rpm for 1 min and then the radioactivity was measured by a Liquid Scintillation Counter.\nas §1"}}, "data": [{"smiles": "O=c1oc2ccccc2n1CCCN1CCC2(CCc3ccccc32)CC1", "note": "[Example 9, 2,3-Dihydro-1′-[3-(2-oxo-1,3-benzoxazol-3(2H)-yl)propyl]spiro[1H-indene-1,4′-piperidine]]", "values": [{"measurement": "IC50", "setting": "human Mu receptor", "result": 871, "unit": "nM"}, {"measurement": "IC50", "setting": "human ORL1 receptor", "result": 89, "unit": "nM"}, {"measurement": "selectivity of binding affinity, ORL-1 receptor versus mu-receptor (in words)", "setting": "human ORL1 receptor; comparison of ORL1 and mu binding assays", "result": "selective affinity for ORL-1 receptor over mu-receptor"}]}]}
